Source: US12599597B2, “Substituted N-benzhydrylacetamide inhibitors of jumanji domain histone demethylases for the treatment of cancer” (University of Kentucky Research Foundation, priority 2020, dated 2026)

What was measured:
UTX (KDM6A) = UTX (KDM6A) (Homo sapiens, UniProt O15550); assay: Histone demethylase assay, purified enzyme panel; type: biochemical; details: Reference inhibitor
Excerpt: (§1) Histone Demethylase Assay
(§2) To further examine the effects of 58B1 on histone demethylase, we screened a panel of purified histone demethylases was screened.

Jarid1B (KDM5B) = Jarid1B (KDM5B) (Homo sapiens, UniProt Q9UGL1); assay: Histone demethylase assay, purified enzyme panel; type: biochemical; details: Reference inhibitor
Jarid1B (KDM5B), sequence (Q9UGL1 whole entry): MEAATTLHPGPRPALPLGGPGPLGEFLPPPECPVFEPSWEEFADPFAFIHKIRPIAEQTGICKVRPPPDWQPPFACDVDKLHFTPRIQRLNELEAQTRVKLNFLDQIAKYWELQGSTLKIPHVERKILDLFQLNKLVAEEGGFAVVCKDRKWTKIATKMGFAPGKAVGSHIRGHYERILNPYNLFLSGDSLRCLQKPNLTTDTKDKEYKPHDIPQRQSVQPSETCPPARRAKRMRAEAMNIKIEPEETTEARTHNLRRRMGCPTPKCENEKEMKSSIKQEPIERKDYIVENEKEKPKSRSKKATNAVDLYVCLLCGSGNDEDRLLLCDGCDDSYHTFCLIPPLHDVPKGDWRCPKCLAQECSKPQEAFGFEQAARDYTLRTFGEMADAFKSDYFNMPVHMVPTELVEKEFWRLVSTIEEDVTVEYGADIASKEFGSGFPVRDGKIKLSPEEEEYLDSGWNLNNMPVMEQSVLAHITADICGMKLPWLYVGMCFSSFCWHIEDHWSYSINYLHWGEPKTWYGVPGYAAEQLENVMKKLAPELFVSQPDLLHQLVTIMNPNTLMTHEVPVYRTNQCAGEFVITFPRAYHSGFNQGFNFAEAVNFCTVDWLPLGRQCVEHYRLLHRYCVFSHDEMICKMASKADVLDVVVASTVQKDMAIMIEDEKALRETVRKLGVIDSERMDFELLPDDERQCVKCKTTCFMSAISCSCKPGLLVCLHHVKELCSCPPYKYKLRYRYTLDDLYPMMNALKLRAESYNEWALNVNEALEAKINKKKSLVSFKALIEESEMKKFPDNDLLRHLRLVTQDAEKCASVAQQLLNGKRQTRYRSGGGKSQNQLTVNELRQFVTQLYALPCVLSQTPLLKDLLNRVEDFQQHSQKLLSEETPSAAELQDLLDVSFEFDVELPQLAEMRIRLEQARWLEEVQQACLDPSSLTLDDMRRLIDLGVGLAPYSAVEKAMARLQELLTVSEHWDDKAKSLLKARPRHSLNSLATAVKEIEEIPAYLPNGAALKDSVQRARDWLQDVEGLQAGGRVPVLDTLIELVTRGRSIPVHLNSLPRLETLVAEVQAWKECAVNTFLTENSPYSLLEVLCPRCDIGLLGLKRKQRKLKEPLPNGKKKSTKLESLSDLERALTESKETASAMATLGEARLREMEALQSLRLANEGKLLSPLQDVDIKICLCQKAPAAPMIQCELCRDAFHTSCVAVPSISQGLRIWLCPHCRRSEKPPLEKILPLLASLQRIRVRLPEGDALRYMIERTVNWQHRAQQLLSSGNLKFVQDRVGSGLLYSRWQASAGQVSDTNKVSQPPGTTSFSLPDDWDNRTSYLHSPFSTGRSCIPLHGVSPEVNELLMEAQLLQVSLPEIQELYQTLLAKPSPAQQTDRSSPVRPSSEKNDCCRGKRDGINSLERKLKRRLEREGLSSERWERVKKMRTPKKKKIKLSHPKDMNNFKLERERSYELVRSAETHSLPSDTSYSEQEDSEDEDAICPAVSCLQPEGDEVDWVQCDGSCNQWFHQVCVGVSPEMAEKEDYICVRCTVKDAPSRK
Excerpt: as §1, §2

Wnt signaling = assay: TOPFlash (Wnt) reporter assay in stable HEK293T cell line; type: cell-based; details: for Percent inhibition at 1 μM: Table 3, Wnt reporter assay at 1 μM
Excerpt: Wnt signaling is a key target for multiple human cancers, including but not limited to colon cancer, liver cancer, and lung cancer. To identify novel Wnt regulators by high throughput screening, a stable HEK293T cell line containing the TOPFlash reporter was established. Since β-catenin is often activated by mutations in the Wnt pathway, it is important to inhibit Wnt signaling downstream of β-catenin activity. Therefore, the screen was specifically designed to identify Wnt inhibitors that target events downstream of β-catenin. The Wnt signaling was activated by treating cells with lithium chloride to inhibit GSK3 and to stabilize β-catenin, mimicking the constitutively active Wnt signaling in cancer cells. Through this screen, a family of novel Wnt inhibitors that inhibited Wnt signaling at a 0.5-10 μM concentrations (Table 1) was identified.
After 6 h, the cells were treated with 25 mM LiCl to activate Wnt signaling. The inhibition ratio of each compound was determined (Table 1).
For the SAR studies, 58B1 (VMS-7-133) was re-synthesized. Additionally, SD70, a commercial KDM4 inhibitor, was both purchased and re-synthesized (VMS-7-175). […] VMS-7-195 is a biotinylated analog of 58B1. […] Specific KDM inhibitors may be used to target specific KDMs, such as KDM3A, which is highly expressed in many human cancers.
Identification of a CBA-1 as a novel Wnt inhibitor. The present inventors routinely use TOPFlash reporter assay for Wnt inhibitor screening. To mimic the constitutively active Wnt signaling found in CRC cells, Wnt signaling was activated by inhibiting GSK3 and stabilizing β-catenin. From screening in house small-molecule libraries, CBA-1 (FIG. 4) was identified that inhibited Wnt signaling in TOPFlash reporter assay. To validate the screening results, CBA-1 was tested in CRC cells.

KDM3B = KDM3B (Homo sapiens, UniProt Q7LBC6); assay: KDM3B enzymatic activity; type: biochemical; details: FIG. 12D
KDM3B, sequence (Q7LBC6 whole entry, the tested form may be a part): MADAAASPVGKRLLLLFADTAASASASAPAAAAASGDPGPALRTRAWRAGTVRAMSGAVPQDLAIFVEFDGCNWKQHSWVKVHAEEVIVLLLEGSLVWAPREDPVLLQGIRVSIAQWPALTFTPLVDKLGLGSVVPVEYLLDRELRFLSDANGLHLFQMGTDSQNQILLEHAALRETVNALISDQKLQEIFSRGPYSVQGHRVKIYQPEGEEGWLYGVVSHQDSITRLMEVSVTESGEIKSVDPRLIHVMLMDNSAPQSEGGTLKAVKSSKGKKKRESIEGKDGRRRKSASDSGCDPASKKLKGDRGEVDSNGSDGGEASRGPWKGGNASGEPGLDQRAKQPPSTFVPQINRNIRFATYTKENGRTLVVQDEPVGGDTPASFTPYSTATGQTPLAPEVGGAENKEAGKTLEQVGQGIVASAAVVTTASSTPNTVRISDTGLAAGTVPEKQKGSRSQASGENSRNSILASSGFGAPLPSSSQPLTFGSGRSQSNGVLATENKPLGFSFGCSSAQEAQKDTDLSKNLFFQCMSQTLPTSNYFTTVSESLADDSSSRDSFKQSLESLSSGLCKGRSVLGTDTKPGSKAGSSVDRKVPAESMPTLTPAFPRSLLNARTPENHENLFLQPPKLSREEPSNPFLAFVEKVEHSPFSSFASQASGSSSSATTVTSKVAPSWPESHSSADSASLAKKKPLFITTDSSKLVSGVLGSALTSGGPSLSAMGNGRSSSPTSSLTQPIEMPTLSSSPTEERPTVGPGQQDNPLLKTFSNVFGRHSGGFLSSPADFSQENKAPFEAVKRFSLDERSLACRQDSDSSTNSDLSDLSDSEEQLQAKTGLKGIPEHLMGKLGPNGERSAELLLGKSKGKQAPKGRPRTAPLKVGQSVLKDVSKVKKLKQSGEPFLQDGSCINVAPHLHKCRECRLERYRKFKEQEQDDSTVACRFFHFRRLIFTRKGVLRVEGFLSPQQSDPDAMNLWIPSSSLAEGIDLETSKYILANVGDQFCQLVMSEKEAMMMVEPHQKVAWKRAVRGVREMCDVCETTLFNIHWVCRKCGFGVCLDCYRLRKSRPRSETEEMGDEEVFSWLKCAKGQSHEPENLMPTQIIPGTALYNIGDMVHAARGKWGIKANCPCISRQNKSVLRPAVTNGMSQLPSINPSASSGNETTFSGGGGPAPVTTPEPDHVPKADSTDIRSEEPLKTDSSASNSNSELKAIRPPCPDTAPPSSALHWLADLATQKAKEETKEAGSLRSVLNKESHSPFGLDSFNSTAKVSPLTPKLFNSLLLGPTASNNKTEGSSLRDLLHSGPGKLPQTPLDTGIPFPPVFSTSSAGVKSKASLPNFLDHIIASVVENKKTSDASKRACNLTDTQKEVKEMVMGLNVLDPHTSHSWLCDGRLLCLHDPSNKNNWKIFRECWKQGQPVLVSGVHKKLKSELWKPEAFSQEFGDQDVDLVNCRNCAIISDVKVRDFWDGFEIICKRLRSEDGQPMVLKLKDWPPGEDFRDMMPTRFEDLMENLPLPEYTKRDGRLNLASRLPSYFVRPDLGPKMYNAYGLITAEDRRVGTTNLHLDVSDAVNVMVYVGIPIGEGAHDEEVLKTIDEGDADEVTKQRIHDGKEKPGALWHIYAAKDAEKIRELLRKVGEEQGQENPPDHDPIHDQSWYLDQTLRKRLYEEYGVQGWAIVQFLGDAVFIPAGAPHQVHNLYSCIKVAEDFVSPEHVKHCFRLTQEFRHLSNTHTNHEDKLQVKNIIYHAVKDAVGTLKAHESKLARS
Excerpt: Other KDM3 members as CBA-1 targets. Inhibition of KDM3A by CBA-1 increased H3K9Me^2 and inhibited Wnt signaling; however, other KDM3 members may also regulate H3K9 methylation. For example, both KDM3B and KDM3C (JMJD1C) regulated Wnt signaling. Given the high similarity of their structures (FIG. 10A), particularly the JmjC domains, it is believed that CBA-1 would inhibit KDM3B and KDM3C as well. […] CBA-1 coordinated with Mn^2+ at a longer distance in KDM3B (3.9 Å) than the distance in KDM3A (2.8 Å) (FIGS. 8B and 10B). This could be one of the reasons that CBA-1 inhibited KDM3A better than KDM3B.
(§3) Repurposing drugs as CBA-1 analogs and KDM3 inhibitors. CBA-1 is a specific and potent KDM3A inhibitor. As backup candidates, two approved drugs were identified as CBA-1 analogs and KDM3A inhibitors. Based on the docking study (FIGS. 8A-B), the N and OH groups (red color in FIG. 12A) are critical in binding the Mn^2+ in KDM3A. […] A virtual screening was performed and several antibiotics that have similar structures were identified. Two of these antibiotics, clioquinol and nitroxoline (FIG. 12B), indeed inhibited the enzymatic activities of KDM3 (FIGS. 12C and D). These two drugs were tested in LS174T tumor xenograft model in SCID mice. […] Nitroxoline has been used in Europe for over 50 years as an antibiotic. It has anticancer effects, but the mechanism remains unclear.

LS174T CRC xenografts = assay: LS174T tumor xenograft model in SCID mice; type: in vivo; details: 50 mg/kg, p.o.
Method: FIGS. 12A-E show images and graphs illustrating CBA-1 analogs from antibiotics. (A) Interaction of CBA-1 with Mn^2+. (B) Clioquinol (X=Cl; Y=I) and nitroxoline. (C-D) Inhibition of (C) KDM3A and (D) KDM3B enzymatic activities. (E) CBA-1 analogs (50 mg/kg, p.o.) inhibited LS174T CRC xenografts in SCID mice.
as §3

JMJD1A (KDM3A) = biological target: T1, JMJD1A (KDM3A) (Homo sapiens, UniProt Q9Y4C1); assay: Histone demethylase assay / KDM3A enzymatic activity in vitro; type: biochemical; details: for enzymatic activity of KDM3A: FIG. 12C
T1 sequence (Q9Y4C1 1-1321): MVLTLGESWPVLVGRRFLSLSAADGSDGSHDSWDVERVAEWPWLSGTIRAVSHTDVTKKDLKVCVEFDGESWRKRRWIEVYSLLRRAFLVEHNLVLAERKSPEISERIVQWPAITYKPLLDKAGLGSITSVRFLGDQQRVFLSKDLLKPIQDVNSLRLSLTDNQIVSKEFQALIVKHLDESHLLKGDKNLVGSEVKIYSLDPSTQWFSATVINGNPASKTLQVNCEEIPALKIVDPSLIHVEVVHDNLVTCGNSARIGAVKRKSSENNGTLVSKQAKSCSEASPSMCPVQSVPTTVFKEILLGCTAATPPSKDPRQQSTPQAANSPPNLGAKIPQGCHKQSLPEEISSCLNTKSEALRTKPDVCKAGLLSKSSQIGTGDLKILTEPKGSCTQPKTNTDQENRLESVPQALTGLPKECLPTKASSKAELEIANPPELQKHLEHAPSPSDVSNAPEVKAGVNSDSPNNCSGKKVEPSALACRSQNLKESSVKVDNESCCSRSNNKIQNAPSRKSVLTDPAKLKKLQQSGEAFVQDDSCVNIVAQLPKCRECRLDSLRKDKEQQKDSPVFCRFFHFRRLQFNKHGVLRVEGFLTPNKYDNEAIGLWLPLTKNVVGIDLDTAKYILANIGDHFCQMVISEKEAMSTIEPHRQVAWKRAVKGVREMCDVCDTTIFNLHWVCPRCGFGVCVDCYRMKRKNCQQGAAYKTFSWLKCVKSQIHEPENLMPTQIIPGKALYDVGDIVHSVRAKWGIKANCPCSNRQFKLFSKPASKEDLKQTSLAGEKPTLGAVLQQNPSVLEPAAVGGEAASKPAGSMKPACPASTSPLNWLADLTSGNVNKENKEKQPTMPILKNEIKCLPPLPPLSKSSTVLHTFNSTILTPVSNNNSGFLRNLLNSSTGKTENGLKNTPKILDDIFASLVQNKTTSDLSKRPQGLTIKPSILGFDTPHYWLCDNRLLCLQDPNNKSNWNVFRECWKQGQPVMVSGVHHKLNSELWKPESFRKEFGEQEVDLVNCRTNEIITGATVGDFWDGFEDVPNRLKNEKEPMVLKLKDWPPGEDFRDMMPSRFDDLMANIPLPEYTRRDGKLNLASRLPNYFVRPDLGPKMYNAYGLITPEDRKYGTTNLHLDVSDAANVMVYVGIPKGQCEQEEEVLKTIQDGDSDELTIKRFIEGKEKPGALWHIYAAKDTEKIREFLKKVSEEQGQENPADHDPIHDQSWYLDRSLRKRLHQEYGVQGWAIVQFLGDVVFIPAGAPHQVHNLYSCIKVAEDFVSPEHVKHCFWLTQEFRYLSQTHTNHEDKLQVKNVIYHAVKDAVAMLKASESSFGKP
Excerpt: as §1, §2
Identification of KDM3A as a target of CBA-1. KDM3A regulated H3K9Me^2 and underwent significant upregulation in CRC. To test if CBA-1 targeted KDM3A, a biotinylated analog CBA-B2 (FIG. 7A) was synthesized. […] Knocking-down KDM3A by shRNA inhibited cell proliferation (FIG. 7D) and Wnt target gene expression in LS174T CRC cells (FIG. 7E).
as §3

[1] = Homo sapiens, HEK-293T, Table 1, HEK293T TOPFlash, 25 mM LiCl after 6 h

UTX (KDM6A), sequence (O15550 whole entry): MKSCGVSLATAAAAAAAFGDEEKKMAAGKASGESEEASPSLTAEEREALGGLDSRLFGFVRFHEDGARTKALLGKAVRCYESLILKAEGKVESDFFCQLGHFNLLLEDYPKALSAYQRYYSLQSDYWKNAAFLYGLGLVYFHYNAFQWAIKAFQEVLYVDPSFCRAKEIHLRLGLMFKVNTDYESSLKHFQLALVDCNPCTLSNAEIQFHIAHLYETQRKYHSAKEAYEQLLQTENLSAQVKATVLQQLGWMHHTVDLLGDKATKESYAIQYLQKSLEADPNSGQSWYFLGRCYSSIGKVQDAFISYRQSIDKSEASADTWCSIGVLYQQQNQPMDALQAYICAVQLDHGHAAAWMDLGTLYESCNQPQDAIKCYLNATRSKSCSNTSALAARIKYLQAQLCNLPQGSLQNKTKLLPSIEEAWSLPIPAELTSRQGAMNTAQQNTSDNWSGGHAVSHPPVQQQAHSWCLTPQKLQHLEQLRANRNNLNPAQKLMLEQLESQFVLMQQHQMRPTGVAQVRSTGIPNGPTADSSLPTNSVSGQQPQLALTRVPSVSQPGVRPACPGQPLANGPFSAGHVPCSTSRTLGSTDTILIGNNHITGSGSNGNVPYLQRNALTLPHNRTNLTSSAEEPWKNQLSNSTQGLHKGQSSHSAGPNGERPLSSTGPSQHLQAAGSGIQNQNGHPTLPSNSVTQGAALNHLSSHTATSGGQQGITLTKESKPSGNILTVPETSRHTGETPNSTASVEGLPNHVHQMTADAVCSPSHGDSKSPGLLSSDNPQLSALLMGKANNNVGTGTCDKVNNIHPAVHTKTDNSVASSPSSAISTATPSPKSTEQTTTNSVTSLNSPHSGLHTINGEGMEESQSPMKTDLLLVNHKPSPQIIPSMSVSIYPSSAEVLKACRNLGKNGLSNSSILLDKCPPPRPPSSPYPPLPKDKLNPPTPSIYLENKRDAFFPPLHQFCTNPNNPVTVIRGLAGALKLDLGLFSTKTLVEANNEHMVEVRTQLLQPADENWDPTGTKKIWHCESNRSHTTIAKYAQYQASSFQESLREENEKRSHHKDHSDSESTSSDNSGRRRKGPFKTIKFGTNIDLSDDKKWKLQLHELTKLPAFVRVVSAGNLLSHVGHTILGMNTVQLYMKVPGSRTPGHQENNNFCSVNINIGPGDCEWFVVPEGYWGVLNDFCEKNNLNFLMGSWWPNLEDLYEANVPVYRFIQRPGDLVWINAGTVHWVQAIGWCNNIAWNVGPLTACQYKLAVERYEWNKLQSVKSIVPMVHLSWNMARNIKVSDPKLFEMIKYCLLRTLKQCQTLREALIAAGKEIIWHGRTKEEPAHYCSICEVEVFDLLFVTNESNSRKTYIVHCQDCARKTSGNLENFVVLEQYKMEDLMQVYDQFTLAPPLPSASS

O=C(O)CCNc1cc(N2CCc3ccccc3CC2)nc(-c2ccccn2)n1 [GSK-J1, reference compound]
% Inhibition (UTX (KDM6A)): 100%
% Inhibition (Jarid1B (KDM5B)): 100%

CC(=O)NC(c1ccc(N(C)C)cc1)c1cc(Cl)c2cccnc2c1O (centres unmarked) [58D8]
inhibition (Wnt signaling; [1]): 90%

CC(C)C(=O)NC(c1ccco1)c1ccc2cccnc2c1O (centres unmarked) [SD70, reference compound]
Percent inhibition at 1 μM (Wnt signaling; 1 µM): 53.8%
Percent inhibition at 1 μM (Wnt signaling; listed as VMS-7-175, 1 µM): 49.7%

CCCC(=O)NC(c1ccc(N2CCC(C(=O)OCC)CC2)cc1)c1cc(Cl)c2cccnc2c1O (centres unmarked) [VMS-7-183]
Percent inhibition at 1 μM (Wnt signaling): 85.6%

O=[N+]([O-])c1ccc(O)c2ncccc12 [nitroxoline]
enzymatic activity of KDM3B (KDM3B): inhibited
tumor growth (LS174T CRC xenografts): inhibited tumor growth
enzymatic activity of KDM3A (JMJD1A (KDM3A)): inhibited

Oc1c(I)cc(Cl)c2cccnc12 [clioquinol]
enzymatic activity of KDM3B (KDM3B): inhibited
tumor growth (LS174T CRC xenografts): inhibited tumor growth
enzymatic activity of KDM3A (JMJD1A (KDM3A)): inhibited

CCCC(=O)NC(c1ccc(N(C)C)cc1)c1cc(Cl)c2cccnc2c1O (centres unmarked) [58F8]
inhibition (Wnt signaling; [1]): 88%

CCCC(=O)NC(c1ccco1)c1cc(Cl)c2cccnc2c1O (centres unmarked) [48M1]
inhibition (Wnt signaling; [1]): 82%

CC(=O)NC(c1ccc(Cl)cc1)c1cc([N+](=O)[O-])c2cccnc2c1O (centres unmarked) [58H8]
inhibition at 2.5 µM (Wnt signaling; Homo sapiens, HEK-293T, Table 1, HEK293T TOPFlash, 2.5 µM of each compound, 25 mM LiCl after 6 h): 80%

Clc1ccc(N/N=C(\c2ccccc2)c2ccccn2)nc1 [JIB-04]
% Inhibition (JMJD1A (KDM3A); Reference inhibitor): 100%

CCC(=O)NC(c1ccco1)c1cc(Cl)c2cccnc2c1O (centres unmarked) [58B6]
inhibition (Wnt signaling; [1]): 73%
